Here are results for five compounds from paper PMC8765320, “Identification of a Proteasome-Targeting Arylsulfonamide with Potential for the Treatment of Chagas’ Disease” (Antimicrobial Agents and Chemotherapy, 2022).

Molecules are shown by their SMILES. Like-named read-outs stand apart in the source and are kept apart here.

One test has as its system T. cruzi epimastigotes. The test can be described thus: T. cruzi epimastigote drug sensitivity assay (resazurin). Format: cell-based, Trypanosoma cruzi. The note with it: for EC50: Trypanosoma cruzi; for susceptibility of CRISPR-edited epimastigotes: β4 F24L and I29M, at all of the concentrations tested. Here is the method: To examine the effects of test compounds on the growth of T. cruzi epimastigotes, mid-log-phase parasites were seeded into 96-well plates at a cell density of 5 × 10^5 cells ml^−1. Cells were exposed to test compounds over a range of concentrations (2-fold serial dilutions). Cells were incubated for 4 days, and then 20 μl of 2.5 mM resazurin was added to each well, before measuring the fluorescence (excitation, 528 nm; emission, 590 nm), following a further 24 h of incubation. […] In this equation, [I] represents the inhibitor concentration, and m is the slope factor. Experiments were repeated at least two times, and the data are presented as means plus the standard deviations.
In general terms: The colour change of resazurin is a common sign of viable cells or microbes.

For a further test, the system named is Chagas' disease. As to conditions: in vivo; cited from earlier work.
The test system of test [1] is T. cruzi amastigotes within Vero cells. In words: Drug sensitivity assay against T. cruzi-infected Vero cells (intracellular amastigotes). Format: cell-based, Trypanosoma cruzi. The note with it: for EC50: Trypanosoma cruzi, Vero. As to the method: The clonal Leishmania donovani cell line LdBOB (derived from MHOM/SD/62/1S-CL2D) was grown as either promastigotes or axenic amastigotes in media specific for each developmental stage, as previously described ([32]). T. cruzi epimastigotes from the Silvio strain (MHOM/BR/78/Silvio; clone X10/7A [33]) were grown at 28°C in RTH/FBS (RPMI 1640 medium supplemented with Trypticase, hemin, HEPES, and 10% heat-inactivated fetal calf serum (FCS) [Fisher Scientific]) ([34]). Bloodstream form T. brucei “single marker” S427 (T7RPOL TETR NEO) were cultured in the presence of G418 (15 μg ml^−1) at 37°C in HMI9-T media in the presence of 5% CO2. HepG2 cells (ECACC 85011430) were obtained from European Collection of Authenticated Cell Culture (ECACC). Cells were maintained in full growth medium (minimal essential medium [MEM] with GlutaMAX (Thermo Fisher), supplemented with 1% MEM nonessential amino acids (Sigma) and 10% heat-inactivated FBS and cultured at 37°C in the presence of 5% CO2. Cells were passaged twice weekly by detaching adherent cells with 0.05% trypsin/EDTA (Sigma) and diluted into fresh media. Cells were never grown beyond 80% confluence. Vero cells (African green monkey kidney cells; ECCAC 84113001) were maintained at 37°C, 5% CO2 in Dulbecco modified Eagle medium (DMEM; Lonza) supplemented with 10% FCS and subcultured every 2 days. T. cruzi metacyclic trypomastigotes were obtained from late-log-phase epimastigote cultures (initial inoculum, 10^6 ml^−1) after ca. 7 to 10 days at 28°C in RTH/FBS. Trypomastigote-rich cultures were incubated with Vero cells overnight at 37°C and 5% CO2 in DMEM/10% FCS. The following day, extracellular parasites were removed by washing the Vero cell monolayer three times. Infected monolayers were maintained at 37°C and in 5% CO2, DMEM/10% FCS was replaced every 48 h until the trypomastigotes reemerged from the Vero cells ([9]).
Drug sensitivity assays against T. cruzi-infected Vero cells were carried out as previously described ([37]); however, in this instance, assays were carried out in 96-well plates. Data were processed using GRAFIT (Erithacus software) and fitted to a two-parameter equation, as described above.

The subject of test [2] is ubiquitinated proteins in T. cruzi epimastigotes. The test can be described thus: Accumulation of ubiquitinated proteins in treated epimastigotes (LC-MS/MS). Format: cell-based, Trypanosoma cruzi. The note with it: epimastigotes pretreated 8 h at 3× EC50 (methods: 8× EC50); one biological replicate. As to the method: In cells where the function of the proteasome has been compromised, there is a concomitant build-up of ubiquitinated proteins earmarked for degradation. […] Control cultures were treated for the same period of time in the presence of dimethyl sulfoxide (DMSO). Enrichment of ubiquitinated proteins was achieved by immunoprecipitation using magnetic beads conjugated to an antibody specific for the remnant of ubiquitinated lysines following digestion with trypsin and/or LysC. We used liquid chromatography-tandem mass spectrometry (LC-MS/MS) to calculate the ubiquitination ratio of each sample by dividing the reporter intensity of ubiquitinated proteins by the reporter intensity of total protein (see Table S8). As expected, the accumulation of ubiquitinylated proteins was highest in epimastigotes treated with bortezomib (2.7-fold higher than in the DMSO-treated control), which is known to inhibit all three catalytic activities of the proteasome (Fig. 3). […] Similarly, ubiquitinated proteins accumulated to levels 1.9-fold higher in compound 1-treated parasites compared to those recovered from DMSO-treated control cells.
Controls were incubated in the presence of diluent (DMSO). Cells were harvested by centrifugation (1,912 × g, 15 min, 4°C) and washed with ice-cold PBS (1,912 × g, 5 min, 4°C); finally, the cell pellets were resuspended in 1.5 ml of ice-cold lysis buffer (1 mM EDTA, 1 mM DTT, 100 μM TLCK, and 1× Roche EDTA-free cOmplete protease inhibitor cocktail in 50 mM potassium phosphate buffer [pH 7.4]). Cell suspensions were submitted to three freeze-thaw cycles in a dry ice/ethanol bath to biologically inactivate the parasites and then lysed using a OneShot cell disruptor (Constant Systems) at 30 kpsi.
Cell lysates were centrifuged (100,000 × g, 20 min, 4°C), supernatants were collected, and the protein concentrations were determined by using a standard Bio-Rad protein assay. […]

For another test, the system named is T. cruzi. As to conditions: cited from earlier work.
Where [3] appears, read: cell line Wild type, read-out: Mean EC50 ± SD.
[4] abbreviates: read-out: Mean EC50 ± SD, cell line RES I (compound 1-resistant, β5 D225N).
Setting [5] is: read-out: Mean EC50 ± SD, cell line RES II (compound 1-resistant, β5 D225N).
The mark [6] stands for this setting: read-out: Mean EC50 ± SD, cell line RES III (compound 1-resistant, β5 D225N).
Where [7] appears, read: read-out: Mean EC50 ± SD, cell line RES IV (compound 1-resistant, no proteasome mutation).
Setting [8] is: read-out: Mean EC50 ± SD, cell line RES V (compound 1-resistant, β4 I27T).
Where [9] appears, read: read-out: Mean EC50 ± SD, cell line Res I-β5 OE (β5 WT overexpressed in RES I).
[10] abbreviates: read-out: Mean EC50 ± SD, cell line β4 F24L/I29M (CRISPR-edited).
[11] abbreviates: read-out: Mean EC50 ± SD, cell line β5 D225N-OE (overexpressing mutated β5).
Setting [12] is: in Vero cells, cell line RES 1, read-out: EC50 values.
Setting [13] is: in Vero cells, cell line RES 5, read-out: EC50 values.
Setting [14] is: in Vero cells, cell line Wild-type, read-out: EC50 values.
The mark [15] stands for this setting: read-out: EC50 values, in Vero cells, cell line β4 F24L/I29M.

Turning to `O=C(Nc1ccc(F)c(-c2cn3nc(-c4ccccc4)cnc3n2)c1)N1CCCC1` [Compound 2], the EC50 with T. cruzi epimastigotes (setting [3]) came out at 0.04 ± 0.001 µM; in the test on T. cruzi epimastigotes (setting [4]) it was 4 ± 0.08 µM; in the test with T. cruzi epimastigotes (setting [5]), 5 ± 0.2 µM; in the test on T. cruzi epimastigotes (setting [6]) it was 5 ± 0.4 µM; with T. cruzi epimastigotes (setting [7]) it was 0.1 ± 0.01 µM; with T. cruzi epimastigotes (setting [8]), 0.8 ± 0.03 µM. Further, the EC50 is 0.3 ± 0.01 µM in the test with T. cruzi epimastigotes (setting [9]), > 10 µM in the test with T. cruzi epimastigotes (setting [10]) and 2 ± 0.1 µM with T. cruzi epimastigotes (setting [11]). Besides, the “fold change versus the WT” value in the test on T. cruzi epimastigotes (cell line RES I) is listed as 100 fold; in the test on T. cruzi epimastigotes (cell line RES II), 125 fold; with T. cruzi epimastigotes (cell line RES III) it was 125 fold; with T. cruzi epimastigotes (cell line RES IV) it was 2.5 fold; with T. cruzi epimastigotes (cell line RES V) it was 20 fold; in the test with T. cruzi epimastigotes (cell line Res I-β5 OE), 6.5 fold. The “fold change versus the WT” value in the test on T. cruzi epimastigotes (cell line β4 F24L/I29M) is > 250 fold; in the test on T. cruzi epimastigotes (cell line β5 D225N-OE), 58 fold. Besides, the “susceptibility of CRISPR-edited epimastigotes” value in the test on T. cruzi epimastigotes was “refractory”.
Consider `CC1CS(=O)(=O)CCN1/N=C/c1ccc([N+](=O)[O-])o1` (stereo not drawn) [nifurtimox], for which the individuals cured result in the test on Chagas' disease was “up to 70%”.
As for `Cc1nc(C)c(C(=O)Nc2ccc(F)c(-c3nc4ncc(-c5ccccn5)cn4n3)c2)o1` [GNF6702], the EC50 in the test with T. cruzi epimastigotes (setting [3]) is 0.3 ± 0.02 µM; with T. cruzi epimastigotes (setting [4]) it was > 10 µM; with T. cruzi epimastigotes (setting [5]), > 10 µM; in the test on T. cruzi epimastigotes (setting [6]), > 10 µM; in the test on T. cruzi epimastigotes (setting [7]) it was > 10 µM; in the test on T. cruzi epimastigotes (setting [8]), 10 ± 0.2 µM. Besides, the EC50 in the test with T. cruzi epimastigotes (setting [9]) is 2 ± 0.3 µM; in the test with T. cruzi epimastigotes (setting [10]) it was > 10 µM; in the test with T. cruzi epimastigotes (setting [11]), > 10 µM; in test [1] (setting [12]), 16 ± 3 µM; in test [1] (setting [13]), 3 ± 0.4 µM; in test [1] (setting [14]), 0.2 ± 0.03 µM. Besides, the EC50 in test [1] (in Vero cells, cell line β5 OE, read-out: EC50 values) is 0.2 ± 0.1 µM; in test [1] (setting [15]) it was > 1.5 µM; in test [1] (read-out: EC50 values, in Vero cells, cell line β5 D225N-OE, (*) one biological replicate), > 5 µM. In the test with T. cruzi epimastigotes, the “susceptibility of CRISPR-edited epimastigotes” value is given as “refractory”. The “accumulation of ubiquitinated proteins versus DMSO-treated control” value in test [2] came out at 1.45 fold. Also, the “treated mice with no detectable parasites in blood, colon, or heart tissue” value in the test on T. cruzi (10 mg kg−1 twice daily, after 4 weeks of immunosuppression) is on record as “All but one of the eight”. The “efficacy in a mouse model of infection” value with T. cruzi (dosed twice daily at 10 mg kg−1) was “matched the efficacy of benznidazole”.
Consider `CC(C)C[C@H](NC(=O)[C@H](Cc1ccccc1)NC(=O)c1cnccn1)B(O)O` [Bortezomib, bortezomib], for which the EC50 worked out at 0.3 ± 0.01 µM with T. cruzi epimastigotes (setting [5]); 0.6 ± 0.05 µM in the test on T. cruzi epimastigotes (setting [7]); 0.2 ± 0.004 µM in the test on T. cruzi epimastigotes (read-out: Mean EC50 ± SD, cell line Wild type). The “fold change versus the WT” value in the test with T. cruzi epimastigotes (cell line RES I) was determined as 1 fold; with T. cruzi epimastigotes (cell line RES II), 1 fold; with T. cruzi epimastigotes (cell line RES III), 1 fold; in the test with T. cruzi epimastigotes (cell line RES IV), 2.5 fold; in the test with T. cruzi epimastigotes (cell line RES V) it was 1 fold; with T. cruzi epimastigotes (cell line Res I-β5 OE), 1 fold. In addition, the “fold change versus the WT” value with T. cruzi epimastigotes (cell line β4 F24L/I29M) and in the test on T. cruzi epimastigotes (cell line β5 D225N-OE) was 1 fold in each case. For the same compound, in the test on T. cruzi epimastigotes (compound 1-resistant clones RES I to V), the “cross-resistance against RES I to V clones” value is recorded as “no evidence of cross-resistance”. Moreover, the “accumulation of ubiquitinated proteins versus DMSO-treated control” value in test [2] amounted to 2.7 fold.
For the compound `CSc1ccc(OCc2ncc([N+](=O)[O-])n2C)cc1` [Fexinidazole, fexinidazole], the EC50 came to 5 ± 1 µM in test [1] (in Vero cells, cell line ME OE, (*) one biological replicate, read-out: EC50 values); 8 ± 1 µM in test [1] (setting [12]); 4 ± 0.7 µM in test [1] (setting [13]); 4 ± 0.8 µM in test [1] (setting [14]); 4 ± 0.6 µM in test [1] (in Vero cells, cell line β5 OE rescue R1, (*) one biological replicate, read-out: EC50 values); 6 ± 0.6 µM in test [1] (setting [15]). Moreover, the EC50 in test [1] (read-out: EC50 values, in Vero cells, cell line β5 OE) was 3 ± 0.3 µM. For the same compound, the “fold change versus WT” value turned out to be 1 fold in test [1] (in Vero cells, cell line ME OE); 2 fold in test [1] (in Vero cells, cell line RES 1); 1 fold in test [1] (in Vero cells, cell line RES 5); 1 fold in test [1] (in Vero cells, cell line Wild-type); 2 fold in test [1] (in Vero cells, cell line β4 F24L/I29M); 1 fold in test [1] (in Vero cells, cell line β5 D225N-OE). Further, the “fold change versus WT” value is on record as 1 fold in test [1] (in Vero cells, cell line β5 OE) and 1 fold in test [1] (in Vero cells, cell line β5 OE rescue R1).
